# What was measured:
# Erysiphe graminis = assay: Powdery Mildew of Wheat (ERYSGT), protectant spray test on wheat seedlings; format: in vivo; details: wheat (cultivar Monon), sprayed to run off at 100 ppm, inoculated after 24 hours
# Puccinia recondita = assay: Brown Rust (PUCCRT), protectant spray test on wheat seedlings; format: in vivo; details: wheat (cultivar Monon), sprayed to run off at 100 ppm, inoculated after 24 hours
# Septoria tritici = details: wheat (cultivar Monon), sprayed to run off at 100 ppm, inoculated after 24 hours
# Phytophthora infestans = format: in vivo; details: tomatoes (cultivar Rutgers), sprayed to run off at 100 ppm, inoculated after 24 hours
# Leptosphaeria nodorum = assay: Glume Blotch of Wheat (LEPTNO), protectant spray test on wheat seedlings; format: in vivo; details: wheat (cultivar Monon), sprayed to run off at 100 ppm, inoculated after 24 hours
Compound,ERYSGT control of plant disease (Erysiphe graminis),PUCCRT control of plant disease (Puccinia recondita),SEPTTR control of plant disease (Septoria tritici),PHYTIN control of plant disease (Phytophthora infestans),LEPTNO control of plant disease (Leptosphaeria nodorum)
CNC(=O)C(=NOC)c1ccccc1COc1ncc(C(O)c2ccc(OC(F)(F)F)cc2)cc1Cl (racemic) [Example 16],++ (++ = 75-100% control of plant disease),++ (++ = 75-100% control of plant disease),++ (++ = 75-100% control of plant disease),− (− = 0-24% control of plant disease),
CNC(=O)C(=NOC)c1ccccc1COc1ncc(C(O)c2ccccc2)cc1C (racemic) [Example 13],++ (++ = 75-100% control of plant disease),++ (++ = 75-100% control of plant disease),++ (++ = 75-100% control of plant disease),++ (++ = 75-100% control of plant disease),
CNC(=O)C(=NOC)c1ccccc1COc1ncc(C(O)c2ccc(Cl)cc2)cc1C (racemic) [Example 15],++ (++ = 75-100% control of plant disease),++ (++ = 75-100% control of plant disease),++ (++ = 75-100% control of plant disease),++ (++ = 75-100% control of plant disease),
CCOCCOC(c1ccccc1)c1cnc(OCc2ccccc2C(=NOC)C(=O)NC)c(Cl)c1 (stereo not shown) [Example 118],++ (++ = 75-100% control of plant disease),++ (++ = 75-100% control of plant disease),,− (− = 0-24% control of plant disease),++ (++ = 75-100% control of plant disease)
CNC(=O)C(=NOC)c1ccccc1COc1ncc(C(OC(=O)OC(C)C)c2ccccc2)cc1Cl (racemic) [Example 56],++ (++ = 75-100% control of plant disease),++ (++ = 75-100% control of plant disease),,++ (++ = 75-100% control of plant disease),++ (++ = 75-100% control of plant disease)
CNC(=O)C(=NOC)c1ccccc1COc1ncc(C(O)c2ccc(OC)c(OC)c2)cc1Cl (stereo not shown) [Example 110],++ (++ = 75-100% control of plant disease),++ (++ = 75-100% control of plant disease),,++ (++ = 75-100% control of plant disease),++ (++ = 75-100% control of plant disease)
CNC(=O)C(=NOC)c1ccccc1COc1ncc(C(OC(=O)COC)c2ccccc2)cc1Cl (racemic) [Example 64],++ (++ = 75-100% control of plant disease),++ (++ = 75-100% control of plant disease),,++ (++ = 75-100% control of plant disease),+ (+ = 25-74% control of plant disease)
CNC(=O)C(=NOC)c1ccccc1COc1ncc(C(O)c2ccccc2C(F)(F)F)cc1Cl (stereo not shown) [Example 81],++ (++ = 75-100% control of plant disease),++ (++ = 75-100% control of plant disease),,++ (++ = 75-100% control of plant disease),+ (+ = 25-74% control of plant disease)
CNC(=O)C(=NOC)c1ccccc1COc1ncc(C(OCc2ccc(OC)cc2)c2ccccc2)cc1Cl (stereo not shown) [Example 101],++ (++ = 75-100% control of plant disease),++ (++ = 75-100% control of plant disease),,++ (++ = 75-100% control of plant disease),+ (+ = 25-74% control of plant disease)
CNC(=O)C(=NOC)c1ccccc1COc1ncc(C(C)OCc2cccc(OC)c2)cc1Cl (racemic) [Example 62],++ (++ = 75-100% control of plant disease),++ (++ = 75-100% control of plant disease),,− (− = 0-24% control of plant disease),++ (++ = 75-100% control of plant disease)
CNC(=O)C(=NOC)c1ccccc1COc1ncc(C(OC(C)=O)c2ccccc2)cc1C (stereo not shown) [Example 98],++ (++ = 75-100% control of plant disease),++ (++ = 75-100% control of plant disease),,++ (++ = 75-100% control of plant disease),++ (++ = 75-100% control of plant disease)
CCCOC(c1ccccc1)c1cnc(OCc2ccccc2C(=NOC)C(=O)NC)c(Cl)c1 (stereo not shown) [Example 120],++ (++ = 75-100% control of plant disease),− (− = 0-24% control of plant disease),,+ (+ = 25-74% control of plant disease),+ (+ = 25-74% control of plant disease)
CNC(=O)C(=NOC)c1ccccc1COc1ncc(C(OC2CCCCO2)c2ccccc2)cc1Cl (mixture of isomers) [Example 57],++ (++ = 75-100% control of plant disease),++ (++ = 75-100% control of plant disease),,++ (++ = 75-100% control of plant disease),++ (++ = 75-100% control of plant disease)
CNC(=O)C(=NOC)c1ccccc1COc1ncc(C(OC(C)=O)c2cccs2)cc1Cl (stereo not shown) [Example 77],++ (++ = 75-100% control of plant disease),++ (++ = 75-100% control of plant disease),,++ (++ = 75-100% control of plant disease),++ (++ = 75-100% control of plant disease)
CNC(=O)C(=NOC)c1ccccc1COc1ncc(C(O)c2cccc(C)c2)cc1Cl (stereo not shown) [Example 85],++ (++ = 75-100% control of plant disease),++ (++ = 75-100% control of plant disease),,− (− = 0-24% control of plant disease),++ (++ = 75-100% control of plant disease)
CCOC(=O)OC(c1ccccc1)c1cnc(OCc2ccccc2C(=NOC)C(=O)NC)c(Cl)c1 (racemic) [Example 33],+ (+ = 25-74% control of plant disease),++ (++ = 75-100% control of plant disease),,++ (++ = 75-100% control of plant disease),++ (++ = 75-100% control of plant disease)
CNC(=O)C(=NOC)c1ccccc1COc1ncc(C(OC(=O)OC)c2ccccc2)cc1Cl (stereo not shown) [Example 68],++ (++ = 75-100% control of plant disease),++ (++ = 75-100% control of plant disease),,++ (++ = 75-100% control of plant disease),− (− = 0-24% control of plant disease)
CNC(=O)C(=NOC)c1ccccc1COc1ncc(C(COC(C)=O)(OC(C)=O)c2ccccc2)cc1Cl (stereo not shown) [Example 107],++ (++ = 75-100% control of plant disease),++ (++ = 75-100% control of plant disease),,++ (++ = 75-100% control of plant disease),++ (++ = 75-100% control of plant disease)
CNC(=O)C(=NOC)c1ccccc1COc1ncc(C(O)C(C)C)cc1Cl (racemic) [Example 43],++ (++ = 75-100% control of plant disease),++ (++ = 75-100% control of plant disease),,++ (++ = 75-100% control of plant disease),+ (+ = 25-74% control of plant disease)
CNC(=O)C(=NOC)c1ccccc1COc1ncc(C(C)(C)O)cc1Cl [Example 34],− (− = 0-24% control of plant disease),++ (++ = 75-100% control of plant disease),,+ (+ = 25-74% control of plant disease),+ (+ = 25-74% control of plant disease)
CNC(=O)C(=NOC)c1ccccc1COc1ncc(C(OC)c2cccc(C)c2)cc1Cl (stereo not shown) [Example 114],++ (++ = 75-100% control of plant disease),++ (++ = 75-100% control of plant disease),,− (− = 0-24% control of plant disease),++ (++ = 75-100% control of plant disease)
CNC(=O)C(=NOC)c1ccccc1COc1ncc(C(O)c2ccccn2)cc1Cl (stereo not shown) [Example 105],++ (++ = 75-100% control of plant disease),++ (++ = 75-100% control of plant disease),,++ (++ = 75-100% control of plant disease),++ (++ = 75-100% control of plant disease)

# From patent US6436963B1 (priority 1998, dated 2002)
